According to ChEMBL document CHEMBL4270542, “Synthesis and study of benzofuran-pyran analogs as BMP-2 targeted osteogenic agents” (Eur J Med Chem, 2018):
Calls of active or inactive are those of the source. The rule behind the calls is not given here.

Experiments:
Calvarial osteoblast [1] = test: Induction of osteoblast differentiation in rat calvarial osteoblast assessed as increase in ALP activity using PNPP as substrate measured after 48 hrs; type: functional, cell-based; settings: for EC50: Rattus norvegicus, Calvarial osteoblast, 48 h
Calvarial osteoblast [2] = test: Induction of mineralization in rat calvarial osteoblast at 1 uM supplemented with fresh medium containing compounds every 48 hrs for 21 days by alizarin red-S staining based assay; type: functional, cell-based
Calvarial osteoblast [3] = test: Induction of osteoblast differentiation in rat calvarial osteoblast assessed as increase in BMP2 mRNA expression at 0.01 to 1 uM after 48 hrs by SYBR green dye based qRT-PCR analysis relative to control; type: functional
Calvarial osteoblast [4] = test: Cytotoxicity against rat calvarial osteoblast assessed as effect on cell viability at 0.000001 to 100 uM after 48 hrs by MTT assay; type: cell-based
Calvarial osteoblast [5] = test: Induction of osteoblast differentiation in rat calvarial osteoblast assessed as increase in BMP2 mRNA expression at 0.1 to 10 nM after 48 hrs by SYBR green dye based qRT-PCR analysis relative to control; type: functional
Calvarial osteoblast [6] = test: Induction of mineralization in rat calvarial osteoblast at 10 nM supplemented with fresh medium containing compounds every 48 hrs for 21 days by alizarin red-S staining based assay; type: functional, cell-based
Calvarial osteoblast [7] = test: Induction of osteoblast differentiation in rat calvarial osteoblast assessed as increase in COL1 mRNA expression at 1 pM after 48 hrs by SYBR green dye based qRT-PCR analysis; type: functional, cell-based
Rattus norvegicus [8] = test: In vivo induction of osteogenesis in rat assessed as increase in OCN mRNA expression at 10 mg/kg, sc administered daily for 5 days by qRT-PCR analysis; type: functional, organism-based
Calvarial osteoblast [9] = test: Induction of osteoblast differentiation in rat calvarial osteoblast assessed as increase in BMP2 mRNA expression at 1 to 100 pM after 48 hrs by SYBR green dye based qRT-PCR analysis relative to control; type: functional
Calvarial osteoblast [10] = test: Induction of mineralization in rat calvarial osteoblast at 1 pM supplemented with fresh medium containing compounds every 48 hrs for 21 days by alizarin red-S staining based assay; type: functional, cell-based
Rattus norvegicus [11] = test: In vivo induction of osteogenesis in rat assessed as increase in COL1 mRNA expression at 10 mg/kg, sc administered daily for 5 days by qRT-PCR analysis; type: functional, organism-based
Calvarial osteoblast [12] = test: Induction of osteoblast differentiation in rat calvarial osteoblast assessed as increase in Runx2 mRNA expression at 1 pM after 48 hrs by SYBR green dye based qRT-PCR analysis relative to control; type: functional
Rattus norvegicus [13] = test: In vivo induction of osteogenesis in rat assessed as increase in COL1 mRNA expression at 2.5 mg/kg, sc administered daily for 5 days by qRT-PCR analysis; type: functional, organism-based
Rattus norvegicus [14] = test: In vivo induction of osteogenesis in rat assessed as increase in BMP2 mRNA expression at 10 mg/kg, sc administered daily for 5 days by qRT-PCR analysis; type: functional, organism-based
Rattus norvegicus [15] = test: In vivo induction of osteogenesis in rat assessed as increase in BMP2 mRNA expression at 2.5 mg/kg, sc administered daily for 5 days by qRT-PCR analysis; type: functional, organism-based
Rattus norvegicus [16] = test: In vivo induction of osteogenesis in rat assessed as increase in OCN mRNA expression at 5 mg/kg, sc administered daily for 5 days by qRT-PCR analysis; type: functional, organism-based

CCc1cc(C2C3=C(CC(C)(C)CC3=O)OC3=C2C(=O)CC(C)(C)C3)cc2cc(C(=O)c3ccc(F)cc3)oc12
concentration of maximal effect (Calvarial osteoblast [1]): 10 µM | EC50 (Calvarial osteoblast [1]): 7960 nM | Activity (Calvarial osteoblast [2]): Active | fold change (FC) (Calvarial osteoblast [3]): 2 | Activity (Calvarial osteoblast [4]): Non-Toxic

CCc1cc(C2C3=C(CCCC3=O)OC3=C2C(=O)CCC3)cc2cc(C(=O)c3ccc(F)cc3)oc12
concentration of maximal effect (Calvarial osteoblast [1]): 0.01 µM | EC50 (Calvarial osteoblast [1]): 7.59 nM | fold change (FC) (Calvarial osteoblast [5]): 2 | Activity (Calvarial osteoblast [4]): Non-Toxic | Activity (Calvarial osteoblast [6]): Active

Cc1cc(C2C3=C(CCCC3=O)OC3=C2C(=O)CCC3)cc2cc(C(=O)c3ccc(F)cc3)oc12
concentration of maximal effect (Calvarial osteoblast [1]): 1e-06 µM | EC50 (Calvarial osteoblast [1]): 0.000822 nM | Activity (Calvarial osteoblast [7]): Active | Activity (Rattus norvegicus [8]): Active | fold change (FC) (Calvarial osteoblast [9]): 2.5 | Activity (Calvarial osteoblast [10]): Active | Activity (Rattus norvegicus [11]): Active | fold change (FC) (Calvarial osteoblast [12]): 2 | Activity (Rattus norvegicus [13]): Active | Activity (Rattus norvegicus [14]): Active | Activity (Rattus norvegicus [15]): Active | Activity (Calvarial osteoblast [4]): Non-Toxic | Activity (Rattus norvegicus [16]): Active
